Test results as given in PubChem BioAssay (NCI).
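Each compound was tested at five concentrations against cells in 96-well plates for 48 hours. GI50 = concentration required for 50% inhibition of growth. At the TGI there is no net growth.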

What was measured:
Assay in all cases: NCI-60 cell line screen, 48 h
NCI-H226 lung = tested on: NCI-H226 lung
HCT-116 colon = tested on: HCT-116 colon
SK-OV-3 ovarian = tested on: SK-OV-3 ovarian
NCI/ADR-RES ovarian = tested on: NCI/ADR-RES ovarian
HT29 colon = tested on: HT29 colon
OVCAR-3 ovarian = tested on: OVCAR-3 ovarian
OVCAR-4 ovarian = tested on: OVCAR-4 ovarian
HOP-92 NSCLC = tested on: HOP-92 NSCLC
MDA-MB-435 = tested on: MDA-MB-435
OVCAR-8 ovarian = tested on: OVCAR-8 ovarian

Compound | TGI (NCI-H226 lung) [µM] | TGI (HCT-116 colon) [µM] | TGI (SK-OV-3 ovarian) [µM] | TGI (NCI/ADR-RES ovarian) [µM] | TGI (HT29 colon) [µM] | TGI (OVCAR-3 ovarian) [µM] | TGI (OVCAR-4 ovarian) [µM] | TGI (HOP-92 NSCLC) [µM] | TGI (MDA-MB-435) [µM] | TGI (OVCAR-8 ovarian) [µM] | GI50 (MDA-MB-435) [µM]
N=C(N)SCc1nc(-c2ccc(Cl)cc2)no1 | > 100 | 31.9 | > 100 | > 100 | 29.3 | 26.2 | 29.1 | 77.6 | 28.4 | > 100 | 
CC1(C)C2CC3C(C)(C2)C31c1cc(Cl)ccc1N (centres undefined) | 34.6 | 17.5 | 29 | 29.5 | 27.6 | 31.2 | 28.6 | 28.6 | 25.1 | 30.3 | 
O=C1C(c2ccccc2)=C(c2ccccc2)C1(Cl)Cl | 10.1 | 2.85 | 29.2 | > 27 | 13.6 | 7.34 | 11.4 | 7.14 | 6.7 | 8.98 | 
c1ccc2c(c1)nnn2C1CCCCO1 (centres undefined) | > 100 | > 100 | > 100 | > 100 | > 100 | > 100 | > 100 | > 100 | > 100 | > 100 | 
C1=CC2C(C3CN(c4ccccc4)N=C13)C1C3C4C=CC21C=CC43 (centres undefined) | > 100 | > 100 | > 100 | > 100 | > 100 | > 100 | > 100 | > 100 | > 100 | > 100 | 
N#Cc1c(/C=C/c2ccccc2)c2c([nH]c1=S)CCCCC2 | > 100 | > 100 | > 100 | > 100 | > 100 | > 100 | > 100 | > 100 | > 100 | > 100 | 
COc1cc2nc(-c3cccs3)nc(N3CCN(c4ccccc4)CC3)c2cc1OC | > 100 | > 100 | > 100 | > 100 | > 100 | > 100 | > 100 | > 100 | > 100 | > 100 | 
CCOc1ccccc1N=NC1C(=O)N(C(=O)CC(=O)Nc2ccccc2C)N=C1C (centres undefined) | > 100 | > 100 | 56.1 | > 100 | > 100 | > 100 | > 100 | 40.8 | > 100 | > 100 | 
CCC[N+](C)(C)CCCNC(=O)c1c(O)c2ccccc2[nH]c1=O | > 100 | > 100 | > 100 | > 100 | > 100 | > 100 | > 100 | > 100 | > 100 | > 100 | 
CCOC(=O)c1ccc2nc3n(c2c1)C(c1c(F)cccc1F)SC3 (centres undefined) | 87 | > 100 | > 100 | > 100 | > 100 | > 100 | > 100 | > 100 | > 100 | > 100 | 
OC(CCN1CCN(CCOC(c2ccccc2)c2ccccc2)CC1)c1ccccc1 (centres undefined) | 88.2 | 34.3 | > 100 | 73.1 | 33.5 | 81.1 | > 100 | 75.8 | 38.3 | 33 | 
Cc1ccc(C)n1-c1ccccc1C1C=Cn2c(=O)oc3c(OC(C)C)c(OC(C)C)c(O)c1c32 (centres undefined) | 36.1 | > 100 | > 100 | > 100 | > 100 | > 100 | > 100 | > 100 | 38.6 | > 100 | 
O=[N+]([O-])c1c(O)c2nonc2c2nn(-c3ccccc3)nc12 | 79.1 | > 100 | > 100 | > 100 | > 100 | > 100 | > 100 | > 100 | > 100 | > 100 | 
CCOC(=O)c1sc2nc(SC)nc3c2c1NCN3C | > 100 | > 100 | 38.3 | > 100 | > 100 | > 100 | > 100 | 27.9 | > 100 | 25.9 | 
CC1(C)CCCCCC(O)C(O)CCC(C)(C)C1=O (centres undefined) | > 100 | > 100 | > 100 | > 100 | > 100 | > 100 | > 100 | > 100 | > 100 | > 100 | 
CC1(C)CCC2=C(O1)c1ccccc1C(=Nc1ccc([N+](=O)[O-])cc1)C2=O | 25.3 | 19.9 | 34.8 | > 100 | 25.2 | 25.3 | 38.7 | > 100 | 29.2 | > 100 | 15.8
COCC(C#N)NC1CC(OC2CC(O)(C(=O)CO)Cc3c(O)c4c(c(O)c32)C(=O)c2c(OC)cccc2C4=O)OC(C)C1O (centres undefined) | 0.117 |  | 10.6 | 16 | 9.03 | 3 | 2.08 | 5 | 0.346 | 0.549 | 
O=C(O)c1cc(NCc2cc(O)ccc2O)ccc1O | > 100 | > 100 | > 100 | > 100 | > 100 | > 100 | > 100 | > 100 | > 100 |  | 
